Laboratory results from patent US8772290B2, “Alpha-arylmethoxyacrylate derivative, preparation method thereof, and pharmaceutical composition containing same” (Oscotech Inc., priority 2010, dated 2014).
pIC50: −log10 of the molar value.

Tested on: HIF
Experiment: Assay for inhibitory activity against HIF activity (HIF1 luciferase reporter cell line)
Assay type: cell-based, human
Settings: Homo sapiens; HEK293 HIF1 reporter cell line, 1% oxygen, 6 hours, luciferase activity 50% inhibited
From the text: In order to assay the compounds of the present invention for inhibitory activity against HIF activity, the HIF1 reporter plasmid (Panomics) that is designed to control the expression of luciferase by HIF was employed. The HIF1 reporter plasmid and the pTK-Hyg plasmid (Clontech), which carries a hygromycin resistant gene, were co-transfected into the HEK293 cell line (the Korean Cell Line Bank, KCLB No. 21573), derived from the human kidney, with the aid of Effectene transfection reagent (Qiagen). Then, the cells were cultured for 3 weeks on a medium containing 200 μg/mL hygromycin to select transformants resistant to hygromycin. The cell colonies derived from single cells were transferred to 24-well plates to secure a reporter cell line. The cells were seeded at a density of 4×10^4 cells/well into 96-well plates containing DMEM and incubated for 24 hours before treatment with the compounds of the present invention at a concentration of 25 μM, 5 μM, 1 μM, 200 nM, 40 nM, 8 nM, 1.6 nM, 320 pM, 64 pM, 12.8 pM, 2.56 pM, 512 fM, 102 fM, 20.4 fM, or an amount between any two concentrations above as shown in FIGS. 1A to 1C. Under 1% oxygen condition, the cells were incubated for 6 hours and then, the medium was removed. The cells were lyzed by incubation for 5 min with 100 μL of the mixture of Bright-Glo™ luciferase assay buffer and Bright-Glo™ luciferase assay substrate (Promega). The whole cell lysate was transferred to 96-well, white plates (PerkinElmer) and measured for luminescence using Victor™ 3 (PerkinElmer). From the luminescence measurements, IC50 (a concentration of the compound at which luciferase activity was 50% inhibited) was calculated using the GraphPad Prism™ 4 program. The results are summarized in Table 2 and illustrated in FIGS. 1A to 1C.

| pIC50 | SMILES |
| --- | --- |
| 9.00 | CCCO/N=C(\CC)c1cc(C)c(OCc2ccccc2/C(=C\OC)C(=O)OC)cc1C [Compound 1, (E)-methyl 2-(2-((2,5-dimethyl-4-((E)-1-(propoxyimino)propyl)phenoxy)-methyl)phenyl)-3-methoxyacrylate] |
| 9.00 | CCCO/N=C(\C)c1cc(C)c(OCc2ccccc2/C(=C\OC)C(=O)OC)cc1C [Compound 2, (E)-methyl 2-(2-((2,5-dimethyl-4-((E)-1-(propoxyimino)ethyl)phenoxy)-methyl)phenyl)-3-methoxyacrylate] |
| 7.30 | CO/C=C(/C(=O)OC)c1ccccc1COc1cccc(OCc2ccccc2)c1 [Compound 3, (E)-methyl 2-(2-((3-(benzyloxy)phenoxy)methyl)phenyl)-3-methoxyacrylate] |
| 6.54 | CCO/N=C/c1cccc(OCc2ccccc2/C(=C\OC)C(=O)OC)c1 [Compound 4, (E)-methyl 2-(2-((3-((E)-(ethoxyimino)methyl)phenoxy)methyl)phenyl)-3-methoxyacrylate] |
| 5.70 | CO/C=C(/C(=O)OC)c1ccccc1COc1cccc(O)c1 [Compound 5, (E)-methyl 2-(2-((5-hydroxyphenoxy)methyl)phenyl)-3-methoxyacrylate] |
| 4.83 | CO/C=C(/C(=O)OC)c1ccccc1COc1cc(C=O)ccc1OC [Compound 6, (E)-methyl 2-(2-((5-formyl-2-methoxyphenoxy)methyl)phenyl)-3-methoxyacrylate] |
| 5.29 | CCCO/N=C(\CC)c1cccc(OCc2ccccc2/C(=C\OC)C(=O)OC)c1 [Compound 7, (E)-methyl 2-(2-((3-((E)-1-(propoxyimino)propyl)phenoxy)methyl)-phenyl)-3-methoxyacrylate] |
| 5.95 | CCCO/N=C(\C)c1ccc(OCc2ccccc2/C(=C\OC)C(=O)OC)cc1 [Compound 8, (E)-methyl 2-(2-((4-((E)-1-(propoxyimino)ethyl)phenoxy)methyl)phenyl)-3-methoxyacrylate] |
| 5.19 | CO/C=C(/C(=O)OC)c1ccccc1COc1ccc(/C(C)=N/OCCN2CCCCC2)cc1 [Compound 9, (E)-methyl 2-(2-((4-((E)-1-(2-(piperidin-1-yl)ethoxyimino)ethyl)phenoxy)-methyl)phenyl)-3-methoxyacrylate] |
| 5.15 | CO/C=C(/C(=O)OC)c1ccccc1COc1cccc(/C=N/OCCN2CCCCC2)c1 [Compound 10, (E)-methyl 3-methoxy-2-(2-((3-((E)-(2-(piperidin-1-yl)ethoxyimino)methyl)phenoxy)methyl)phenyl)acrylate] |
| 6.19 | CO/C=C(/C(=O)OC)c1ccccc1COc1cccc(OCCNCCO)c1 [Compound 11, (E)-methyl 2-(2-((3-(2-(2-hydroxyethylamino)ethoxy)phenoxy)methyl)-phenyl)-3-methoxyacrylate] |
| 5.22 | CO/C=C(/C(=O)OC)c1ccccc1COc1cccc(OCCO)c1 [Compound 12, (E)-methyl 2-(2-((3-(2-hydroxyethoxy)phenoxy)methyl)phenyl)-3-methoxyacrylate] |
| 5.00 | CO/C=C(/C(=O)OC)c1ccccc1COc1cccc(OCC[N+]2([O-])CCOCC2)c1 [Compound 13, (E)-4-(2-(3-(2-(1,3-dimethoxy-3-oxoprop-1-en-2-yl)benzyloxy)phenoxy)-ethyl)morpholine 4-oxide] |
| 4.70 | CCCO/N=C/c1cccc(OCc2ccccc2/C(=C\OC)C(=O)OC)c1 [Compound 14, (E)-methyl 3-methoxy-2-(2-((3-((E)-(propoxyimino)methyl)phenoxy)-methyl)phenyl)acrylate] |
| 5.43 | CO/C=C(/C(=O)OC)c1ccccc1COc1cc(O)cc(F)c1 [Compound 15, (E)-methyl 2-(2-((3-fluoro-5-hydroxyphenoxy)methyl)phenyl)-3-methoxyacrylate] |
| 6.47 | CO/C=C(/C(=O)OC)c1ccccc1COc1cccc(OCCc2ccccc2)c1 [Compound 16, (E)-methyl 2-(2-((3-phenethoxyphenoxy)methyl)phenyl)-3-methoxyacrylate] |
| 6.43 | CO/C=C(/C(=O)OC)c1ccccc1COc1ccc(/C(C)=N/OCc2ccccc2)cc1 [Compound 17, (E)-methyl 2-(2-((4-((E)-1-(benzyloxyimino)ethyl)phenoxy)methyl)-phenyl)-3-methoxyacrylate] |
| 6.40 | CO/C=C(/C(=O)OC)c1ccccc1COc1ccc(/C(C)=N/OCCc2ccccc2)cc1 [Compound 18, (E)-methyl 2-(2-((4-((E)-1-(phenethoxyimino)ethyl)phenoxy)methyl)-phenyl)-3-methoxyacrylate] |
| 6.04 | CO/C=C(/C(=O)OC)c1ccccc1COc1ccc(F)cc1 [Compound 19, (E)-methyl 2-(2-((4-fluorophenoxy)methyl)phenyl)-3-methoxyacrylate] |
| 6.31 | CO/C=C(/C(=O)OC)c1ccccc1COc1cc(F)cc(OCc2ccccc2)c1 [Compound 21, (E)-methyl 2-(2-((3-(benzyloxy)-5-fluorophenoxy)methyl)phenyl)-3-methoxyacrylate] |
| 6.59 | CO/C=C(/C(=O)OC)c1ccccc1COc1cc(F)cc(OCCOc2ccccc2)c1 [Compound 22, (E)-methyl 2-(2-((3-fluoro-5-(2-phenoxyethoxy)phenoxy)methyl)phenyl)-3-methoxyacrylate] |
| 6.64 | CO/C=C(/C(=O)OC)c1ccccc1COc1cc(F)cc(OCc2ccccn2)c1 [Compound 23, (E)-methyl 2-(2-((3-fluoro-5-(pyridin-2-ylmethoxy)phenoxy)methyl)-phenyl)-3-methoxyacrylate] |
| 6.19 | CO/C=C(/C(=O)OC)c1ccccc1COc1cc(F)cc(OCc2ccc([N+](=O)[O-])cc2)c1 [Compound 24, (E)-methyl 2-(2-((3-fluoro-5-(4-nitrobenzyloxy)phenoxy)methyl)phenyl)-3-methoxyacrylate] |
| 6.36 | CO/C=C(/C(=O)OC)c1ccccc1COc1cccc(/C=N/N2CCOCC2)c1 [Compound 25, (E)-methyl 3-methoxy-2-(2-((3-((E)-(morpholinoimino)methyl)phenoxy)-methyl)phenyl)acrylate] |
| 6.29 | CO/C=C(/C(=O)OC)c1ccccc1COc1cccc(OCc2ccccn2)c1 [Compound 26, (E)-methyl 2-(2-((3-(pyridin-2-ylmethoxy)phenoxy)methyl)phenyl)-3-methoxyacrylate] |
| 6.47 | CO/C=C(/C(=O)OC)c1ccccc1COc1cccc(OCc2ccncc2)c1 [Compound 27, (E)-methyl 2-(2-((3-(pyridin-4-ylmethoxy)phenoxy)methyl)phenyl)-3-methoxyacrylate] |
| 6.15 | CO/C=C(/C(=O)OC)c1ccccc1COc1cc(O)cc(OCc2ccccn2)c1 [Compound 28, (E)-methyl 2-(2-((3-hydroxy-5-(pyridin-2-ylmethoxy)phenoxy)methyl)-phenyl)-3-methoxyacrylate] |
| 4.96 | CO/C=C(/C(=O)OC)c1ccccc1COc1cc(O)cc(OCc2ccncc2)c1 [Compound 29, (E)-methyl 2-(2-((3-hydroxy-5-(pyridin-4-ylmethoxy)phenoxy)methyl)-phenyl)-3-methoxyacrylate] |
| 5.38 | CC/C(=N\N1CCOCC1)c1cc(C)c(OCc2ccccc2/C(=C\OC)C(=O)OC)cc1C [Compound 30, (E)-methyl 2-(2-((2,5-dimethyl-4-((E)-1-(morpholinoimino)propyl)-phenoxy)methyl)phenyl)-3-methoxyacrylate] |
